From US8389569B2, “Polyspirane compounds, application thereof in the treatment of malaria or toxoplasmosis and method for preparing same” (Universite Joseph Fourier, priority 2007, dated 2013)
Where two headings read alike, the source gives them in different places.

Experiments:
[1] = tested on: Toxoplasma (RH-β1 strain) in HFF (Human Foreskin Fibroblast) cells; experiment: Antitoxoplasmic activity in vitro, colorimetric microtitre proliferation test; type: cell-based, Toxoplasma gondii
Protocol: The test implemented here is a colorimetric microtitre test. A monolayer of HFF (Human Foreskin Fibroblast) cells is infected, in a synchronous manner, by the parasite (10^4 parasites per well, RH-β1 strain). After washing, increasing doses (from 50 nM to 100 μM) of compound are added, except to the control well (addition, or no addition, of DMSO). After incubation for 48 hours, the β-galactosidase activity is measured by the addition of a substrate of the enzyme, chlorophenol red β-D-galactopyranoside (CPRG). The plates are again incubated (from 30 min to 16 h at 37° C.) before being read at 570 and 630 nm.

[2] = tested on: Plasmodium falciparum 3D7 strain (chloroquine-sensitive); experiment: Antimalarial activity in vitro, [3H]-hypoxanthine isotopic microtest; type: cell-based; conditions: asynchronous culture of infected erythrocytes, 48 hours + 18 hours [3H]-hypoxanthine, read-out: Plasmodium Proliferation test 3D7 strain (IC 50)
Protocol: Before experimentation, parasites of the 3D7 strain (chloroquine-sensitive, […] de Waal H. A. and F. […] ATCC no.: MRA-102) of Plasmodium falciparum are maintained in culture according to the Trager and Jansen method (Trager and Jansen, 1976). The antimalarial activity is measured in vitro on an asynchronous culture of erythrocytes infected with Plasmodium falciparum according to a modified method ([…] et al., 2003) based on the Desjardins isotopic microtest (Desjardins et al., 1979). […] After incubation for 48 hours, 0.5 μCi [^3H]-hypoxanthine (a precursor necessary for the synthesis of the radiolabelled nucleic acids of the parasite) are added to each microtitre plate well. After incubation for 18 hours, the hypoxanthine incorporation reaction is stopped and the cells lysed by direct freezing at -80° C. After thawing, the parasitic macromolecules, including the radiolabelled nucleic acids, are collected on a filter by means of a cell collector. A scintillation cocktail is added to the filter and the incorporated radioactivity is then measured with a scintillation counter. The radioactive background noise is measured starting from non-infected erythrocytes and subtracted from each filter measurement. The viability of the parasites treated with the compound to be tested is measured by their ability to synthesize nucleic acids from a radiolabelled precursor ([H^3]-hypoxanthine) in comparison with the control parasites cultured in the absence of the compound and is expressed as a percentage of the control. The measurements are analyzed by means of the Graphpad Prism software and the IC50 (concentration of compound able to inhibit 50% of the parasites' growth in vitro) is determined graphically. The results obtained appear in the form of IC50 in the table and are the result of two experiments carried out independently (different parasite cultures, different dilutions) in duplicate.

[3] = tested on: synchronized Plasmodium falciparum parasites (ring, trophozoite, schizont); experiment: Minimum contact time necessary for cytotoxicity as a function of the parasitic stage (time-course); type: cell-based; conditions: 20×IC50, contact 30 min to 9 h; for activity on the different blood stages of the parasite (FIG. 11): viability as % of control; for speed and reversibility of the action (FIG. 11): washed, viability read at next cycle
Protocol: A culture of Plasmodium falciparum parasites is synchronized with VarioMACS (which retains the mature forms, which synthesize a pigment: haemozoin). After the culture has been passed through a VarioMACS column for 6 h, the synchronization range of the parasites is restricted by a second synchronization with 5% sorbitol (which retains only the young, so-called ring stage) at time t0, i.e. a short time after the invasion of healthy erythrocytes by the merozoites originating from the schizonts obtained by synchronization with the VarioMACS. The parasites are then brought into contact during each stage (ring, then trophozoite then schizont) with a fixed concentration of compound (20×IC50 previously defined by the above protocol) and for variable periods of time (30 min, 1 h 30 min, 3 h, 5 h, 7 h and 9 h in the case of parasites treated in the ring stage; 30 min, 1 h 30 min, 3 h, 5 h and 7 h in the case of parasites treated in the trophozoite and schizont stage). At the end of the defined period of contact, the erythrocyte mat is washed twice in complete medium. At t0+44h, (i.e. at the start of the subsequent parasitic life cycle), the erythrocyte mats are resuspended and redistributed into 96-well plates (in sextuplicate), 0.5 μCi of tritiated [^3H]-hypoxanthine is then added to the culture medium. From then on, the treatment is the same as that of the abovementioned experiment with one difference: the results obtained appear in the form of a graph which represents the viability of the parasites expressed as a control percentage as a function of the time for which the culture is in contact with the compound to be tested.

[4] = HFF monolayer infected with RH-β1 strain, 48 hours incubation, β-galactosidase activity (CPRG), read-out: Toxoplasma Proliferation test (IC 50)
[5] = Plasmodium falciparum, 3D7, Erythrocyte, 66 h
[6] = Toxoplasma, Fibroblast, 48 h, read-out: Toxoplasma Proliferation test (IC 50), HFF monolayer infected with RH-β1 strain, 48 hours incubation, β-galactosidase activity (CPRG)

| Molecule | IC50 [2] | IC50 [2, 5] | IC50 [1, 6] | other results |
| --- | --- | --- | --- | --- |
| 6-epi-aculeatin D [reference compound] | 451 nM | – | – | IC50 [1, 4]: 377 nM |
| CCCOC(=O)C[C@@H]1C[C@@H](O)C[C@]2(CCC3(C=CC(=O)C=C3)O2)O1 (mixture of isomers) [10a, propyl (2S,4R,6R)- and (2R,4S,6S)-(4-Hydroxy-1′-oxo-1,7-dioxadispiro[5.1.5.2]pentadeca-9,12-dien-2-yl)-acetate] | 1840 nM | – | – | IC50 [1, 4]: 500 nM |
| CCCCCCC(=O)OC1CC2(CC[C@]3(C=CC(=O)C=C3)O2)O[C@@]2(CC[C@]3(C=CC(=O)C=C3)O2)C1 (mixture of isomers) [16a, (8R,10S,21S)- and (8S,10R,21R)-Heptanoate of 7,9,11-trioxatetraspiro[5.1.1.1.5^12.2^10.3^8.2^6]tetracosa-1,4,13,16-dien-3,15-on-21-yl] | – | 343 nM | – | – |
| CCCCCCCCCCCCCC(=O)OC1CC2(CC[C@]3(C=CC(=O)C=C3)O2)O[C@@]2(CC[C@]3(C=CC(=O)C=C3)O2)C1 (mixture of isomers) [16c, (8R,10S,21S)- and (8S,10R,21R)-Tetradecanoate of 7,9,11-trioxatetraspiro[5.1.1.1.5^12.2^10.3^8.2^6]tetracosa-1,4,13,16-dien-3,15-on-21-yl] | – | 81.5 nM | 346 nM | activity on the different blood stages of the parasite (FIG. 11) [3]: active on the different blood stages (rings, trophozoites and schizonts); speed and reversibility of the action (FIG. 11) [3]: extremely rapid and is not reversible |
| CCCCCCCCCCOC(=O)C[C@@H]1C[C@@H](O)C[C@]2(CCC3(C=CC(=O)C=C3)O2)O1 (racemic) [10b, decyl (2S,4R,6R)- and (2R,4S,6S)-(4-Hydroxy-11-oxo-1,7-dioxadispiro[5.1.5.2]pentadeca-9,12-dien-2-yl)-acetate] | – | 654 nM | 341 nM | – |
| CCCCCCCCCCCCCCCCCCOC(=O)C[C@@H]1C[C@@H](O)C[C@]2(CCC3(C=CC(=O)C=C3)O2)O1 (racemic) [10c, octadecyl (2S,4R,6R)- and (2R,4S,6S)-(4-Hydroxy-11-oxo-1,7-dioxadispiro[5.1.5.2]pentadeca-9,12-dien-2-yl)-acetate] | – | 770 nM | 2400 nM | – |
| CCCCCCN(CCCCCC)C(=O)C[C@@H]1C[C@@H](O)C[C@]2(CCC3(C=CC(=O)C=C3)O2)O1 (racemic) [10e, (2S,4R,6R)- and (2R,4S,6S)—N,N-dihexyl-2-(4-hydroxy-11-oxo-1,7-dioxadispiro[5.1.5.2]pentadeca-9,12-dien-2-yl)-acetamide] | – | 899 nM | – | – |
| CCCCCCCCCCOC(=O)CC1CC(O)C[C@@]2(CCC3(C=CC(=O)C=C3)O2)O1 (mixture of isomers) [11b, (2S,4R,6S)- and decyl (2R,4S,6R)-(4-Hydroxy-11-oxo-1,7-dioxadispiro[5.1.5.2]pentadeca-9,12-dien-2-yl)-acetate] | – | 1360 nM | 1640 nM | – |
| CCCCCCCCCCCCCCCCCCOC(=O)C[C@@H]1C[C@H](O)C[C@]2(CCC3(C=CC(=O)C=C3)O2)O1 (racemic) [12c, octadecyl (2S,4S,6R)- and (2R,4R,6S)-(4-Hydroxy-11-oxo-1,7-dioxadispiro[5.1.5.2]pentadeca-9,12-dien-2-yl)-acetate] | – | 1030 nM | 3540 nM | – |
| CCCCCCCCCCCCCCCCCCOC(=O)C[C@@H]1C[C@H](O)C[C@@]2(CCC3(C=CC(=O)C=C3)O2)O1 (racemic) [13c, octadecyl (2S,4S,6S)- and (2R,4R,6R)-(4-Hydroxy-11-oxo-1,7-dioxadispiro[5.1.5.2]pentadeca-9,12-dien-2-yl)-acetate] | – | 1130 nM | 3520 nM | – |
| O=C1C=CC2(C=C1)CC[C@]1(CC(O)C[C@@]3(CCC4(C=CC(=O)C=C4)O3)O1)O2 (stereo partly drawn) [4a, (8R,10S,21S)- and (8S,10R,21R)-21-Hydroxy-7,9,11-trioxatetraspiro[5.1.1.1.5^12.2^10.3^8.2^6]tetracosa-1,4,13,16-dien-3,15-one] | 414 nM | – | – | IC50 [1, 4]: 173 nM |
| O=C1C=C[C@]2(C=C1)CCC1(CC(O)C[C@]3(CC[C@@]4(C=CC(=O)C=C4)O3)O1)O2 (stereo partly drawn) [4b, (8R,10R,21S)-21-Hydroxy-7,9,11-trioxatetraspiro[5.1.1.1.5^12.2^10.3^8.2^6]tetracosa-1,4,13,16-dien-3,15-one] | – | 584 nM | 1500 nM | – |
| CCCCCCC(=O)OC1CC2(CC[C@]3(C=CC(=O)C=C3)O2)O[C@@]2(CC[C@]3(C=CC(=O)C=C3)O2)C1 (stereo partly drawn) [16b, (8R,10R,21S)-Heptanoate of 7,9,11-trioxatetraspiro[5.1.1.1.5^12.2^10.3^8.2^6]tetracosa-1,4,13,16-dien-3,15-on-21-yl] | 331 nM | – | – | – |
| CCCCCCCCCCCCCC(=O)OC1CC2(CC[C@]3(C=CC(=O)C=C3)O2)O[C@@]2(CC[C@]3(C=CC(=O)C=C3)O2)C1 (stereo partly drawn) [16d, (8R,10R,21S)-Tetradecanoate of 7,9,11-trioxatetraspiro[5.1.1.1.5^12.2^10.3^8.2^6]tetracosa-1,4,13,16-dien-3,15-on-21-yl] | 91.7 nM | – | – | activity on the different blood stages of the parasite (FIG. 11) [3]: active on the different blood stages (rings, trophozoites and schizonts); speed and reversibility of the action (FIG. 11) [3]: extremely rapid and is not reversible; IC50 ([1]; read-out: Toxoplasma Proliferation test (IC 50), HFF monolayer infected with RH-β1 strain, 48 hours incubation, β-galactosidase activity (CPRG)): 636 nM |
| CCCCCCCCCCCCCC(=O)CC(=O)OC1C[C@]2(CCC3(C=CC(=O)C=C3)O2)O[C@]2(CCC3(C=CC(=O)C=C3)O2)C1 (stereo partly drawn) [16e, (8R,10S,21S)- and (8S,10R,21R)-3-Oxohexadecanoate of 7,9,11-trioxatetraspiro[5.1.1.1.5^12.2^10.3^8.2^6]tetracosa-1,4,13,16-dien-3,15-on-21-yl] | 122 nM | – | – | – |
| CCCCCCCCCCCCC[C@@H]1C[C@@H](O)C[C@]2(CCC3(C=CC(=O)C=C3)O2)O1 [Natural aculeatin A, aculeatin A, reference compound] | 288 nM | – | – | IC50 [1, 4]: 309 nM |
| CCCCCCCCCCCCC[C@@H]1C[C@H](O)C[C@]2(CCC3(C=CC(=O)C=C3)O2)O1 [Natural aculeatin B, aculeatin B, reference compound] | 454 nM | – | – | IC50 [1, 4]: 365 nM |
